Test results reported in patent publication US20210069189A1, “TREATMENT OF NEURODEGENERATIVE DISEASES” (BENEVOLENTAI BIO LIMITED, priority 2017, published 2021).

Experiments:
ALS = ALS patients; cited from earlier work
[1] = tested on: murine Hb9-GFP+ motor neurons co-cultured with ALS patient-derived iAstrocytes; experiment: ALS patient iAstrocyte / mouse Hb9-GFP+ motor neuron co-culture, motor neuron survival; assay type: cell-based, human iAstrocytes; settings: iAstrocytes pre-treated 24 hours with various concentrations; viable motor neurons at 72 h as percentage of 24 h, normalised to DMSO control; FIG. 2
Protocol: ALS iAstrocytes were pre-treated with various concentrations of nilotinib, bafetinib or bosutinib for 24 hours, prior to murine Hb9-GFP motor neuron seeding in co-culture. The number of viable motor neurons was then measured 24 and 72 hours after motor neuron seeding, and the percentage motor neuron survival was calculated, and then normalised to the untreated control of the respective line. *P<0.05, **P<0.01, ***P<0.001. One-way ANOVA with Dunnett's post-hoc test. Data are mean±SD. n=5-6.
This example describes the effect of nilotinib, bafetinib and bosutinib on motor neuron survival in an in vitro model of ALS. This model uses human fibroblast-derived astrocytes and mouse Hb9−GFP+ motor neurons in co-culture (Meyer et al., 2014, PNAS 111, 829-832). The fibroblasts were reprogrammed to induced neural progenitor cells (iNPCs), which were differentiated into Astrocytes. Astrocytes derived from ALS patients cause death of the wild-type Hb9−GFP+ mouse motor neurons in co-culture, a property not seen in astrocytes derived from normal (non-ALS) patients. […]
3,000 human iAstrocytes were seeded per well on fibronectin-coated 384-well plates. […] Hb9− GFP+ motor neurons were imaged after 24 and 72 hours using an INCELL analyser 2000 (GE Healthcare), and the number of viable motor neurons was counted using the INCELL analyser software (GE Healthcare).
The number of viable motor neurons (defined as GFP+ motor neurons with at least 1 axon) 25 that survived after 72 hours in co-culture was calculated as a percentage of the number of viable motor neurons after 24 hours in co-culture. […]

[2] = tested on: SOD1^G93A mouse model of ALS; settings: cited from earlier work
P-glycoprotein (P-gp) = P-glycoprotein (P-gp) (Homo sapiens, UniProt P08183); settings: cited from earlier work
P-glycoprotein (P-gp), sequence (P08183 whole entry): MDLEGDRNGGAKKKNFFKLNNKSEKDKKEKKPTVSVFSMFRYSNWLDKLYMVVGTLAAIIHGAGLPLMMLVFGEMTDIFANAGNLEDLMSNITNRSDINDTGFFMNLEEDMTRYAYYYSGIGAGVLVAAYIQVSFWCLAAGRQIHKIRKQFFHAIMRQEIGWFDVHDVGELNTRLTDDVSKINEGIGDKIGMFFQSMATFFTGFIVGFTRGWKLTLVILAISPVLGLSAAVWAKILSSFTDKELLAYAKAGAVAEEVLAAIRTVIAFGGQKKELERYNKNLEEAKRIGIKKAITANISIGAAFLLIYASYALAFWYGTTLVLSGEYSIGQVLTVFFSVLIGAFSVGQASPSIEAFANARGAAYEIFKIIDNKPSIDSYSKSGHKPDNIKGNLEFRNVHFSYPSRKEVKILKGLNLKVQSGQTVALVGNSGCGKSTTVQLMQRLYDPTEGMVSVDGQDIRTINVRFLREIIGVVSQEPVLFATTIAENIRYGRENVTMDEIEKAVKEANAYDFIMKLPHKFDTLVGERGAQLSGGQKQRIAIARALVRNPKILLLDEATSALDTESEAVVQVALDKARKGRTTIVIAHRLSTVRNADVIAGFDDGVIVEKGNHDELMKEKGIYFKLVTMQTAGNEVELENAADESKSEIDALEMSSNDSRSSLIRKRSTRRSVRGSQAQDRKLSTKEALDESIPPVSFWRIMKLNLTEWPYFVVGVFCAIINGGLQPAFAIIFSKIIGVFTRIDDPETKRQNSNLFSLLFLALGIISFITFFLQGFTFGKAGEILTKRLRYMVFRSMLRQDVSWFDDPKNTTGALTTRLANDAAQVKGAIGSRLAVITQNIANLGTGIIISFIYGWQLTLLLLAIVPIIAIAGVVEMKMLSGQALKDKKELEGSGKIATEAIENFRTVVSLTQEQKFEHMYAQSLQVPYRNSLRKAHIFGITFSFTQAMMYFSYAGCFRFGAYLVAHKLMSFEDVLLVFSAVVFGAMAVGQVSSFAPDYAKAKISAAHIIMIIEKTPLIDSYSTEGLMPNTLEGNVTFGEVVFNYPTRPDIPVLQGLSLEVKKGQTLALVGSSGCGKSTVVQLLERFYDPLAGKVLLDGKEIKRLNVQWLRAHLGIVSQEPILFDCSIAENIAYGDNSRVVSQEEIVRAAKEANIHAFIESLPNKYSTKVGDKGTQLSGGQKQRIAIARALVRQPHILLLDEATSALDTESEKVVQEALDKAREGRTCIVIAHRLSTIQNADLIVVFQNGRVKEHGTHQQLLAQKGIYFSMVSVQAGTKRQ

## Nc1nc2ccc(OC(F)(F)F)cc2s1 [Riluzole]
ALS
  prolongation of life: 2-3 months

## C=CC(=O)Nc1cc2c(Nc3ccc(F)c(Cl)c3)ncnc2cc1OCCCN1CCOCC1 [canertinib]
[1]
  motor neuron survival: no such increase in survival

## C#Cc1cccc(Nc2ncnc3cc(OCCOC)c(OCCOC)cc23)c1 [erlotinib]
[2]
  lifespan: failed to extend lifespan
  penetration into the central nervous system: penetrated into the central nervous system
  protection of motor synapses: did not protect motor synapses
  symptom delay (disease onset and progression): modest yet statistically significant symptom delay

## Cc1ccc(NC(=O)c2ccc(CN3CCN(C)CC3)cc2)cc1Nc1nc(-c2cccnc2)cs1 [masitinib]
[1]
  motor neuron survival: no such increase in survival

## Cc1cn(-c2cc(NC(=O)c3ccc(C)c(Nc4nccc(-c5cccnc5)n4)c3)cc(C(F)(F)F)c2)cn1 [nilotinib]
[1]
  motor neuron survival: dose-dependent increase in motor neuron survival
P-glycoprotein (P-gp)
  P-glycoprotein substrate: P-glycoprotein (P-gp) substrate
